Results reported in patent US20230255987A1, “AQUEOUS PHARMACEUTICAL COMPOSITION COMPRISING A P2Y12 RECEPTOR ANTAGONIST” (Idorsia Pharmaceuticals Ltd, priority 2020, published 2023).

Columns and labels:
[1] = pH shift of unbuffered, pH-adjusted aqueous solution of COMPOUND on storage; format: physicochemical; conditions: initial pH 9.0, 2 days at 70° C.
[2] = Stability of COMPOUND in aqueous solution at pH 9.0 with boric acid buffer at different buffer concentrations, 75° C.; format: physicochemical
Procedure: (§1) Sample Preparation for High Performance Liquid Chromatography and Method Used • 20 μL of the respective aqueous pharmaceutical composition was filled into a HPLC vial. • 980 μL water was added (dilution factor 50) prior HPLC analysis. • HPLC-UV method used: • HPLC system: High pressure mixing Shimadzu Nexera X2 • Flow: 1.5 mL/min • Column temperature: 50° C. • Autosampler temperature: 25° C. • Injection volume: 1 μL • Column: Phenomenex Gemini 5.0 μm 110 Å, 50×2.0 mm (n° 184) • Wavelength: DAD+250 nm • Solvent A: tris(hydroxymethyl)aminomethane buffer 50 mM pH 9 (adjusted with HCl)+5% (v/v) acetonitrile • Solvent B: Acetonitrile+5% (v/v) tris(hydroxymethyl)aminomethane buffer 50 mM pH 9 (adjusted with HCl) • Gradient: […]
Stability of COMPOUND in aqueous solution at pH 9.0 in the presence of boric acid buffer at different buffer concentrations
Formulation compositions assessing the impact of buffer capacity on formulation stability

[3] = Long-term stability of COMPOUND in 60 mM arginine buffer under different storage conditions (UPLC); format: physicochemical
Procedure: In a 10 L glass reactor, L-arginine (104 g, 0.60 mol) was added under stirring to water for injection (7.01 kg). COMPOUND hydrochloride (339 g, 0.52 mol) was added portion wise to the solution and the pH value was adjusted to pH=9.0 by addition of 1.0 M aqueous NaOH solution (1.18 kg). Water for injection was added to a total weight of the solution of 10.15 kg.
For stability testing the test samples were prepared by filling 0.54 mL of the above solution into prefillable 1 mL glass syringes with stacked in needle and stored under the conditions given in table 14 and 15. The samples were analysed after the given timepoints by ultra-performance liquid chromatography (UPLC) using the following conditions: • Equipment: • UPLC system, with data acquisition system and UV detection
Mobile phase A: Weigh 3.08 g of ammonium acetate and 3.26 g of ammonium hexafluorophosphate in a 2 L bottle. Dissolve in 1900 mL H2O. Add 100 mL of acetonitrile.
Mobile phase B: Weigh 0.77 g of ammonium acetate in a 1 L bottle. Dissolve in 50 mL H2O. Add 950 mL of acetonitrile.
Diluent: Mix 920 mL of Mobile Phase A with 80 mL Mobile phase B.
Reference standard solution: 0.32 mg/mL of COMPOUND reference standard in diluent.
Sample solution: The samples were diluted to 0.32 mg/mL of COMPOUND (based on amount of COMPOUND in the initial solution) with diluent
Column: 100 mm×3.0 mm, 3 μm C18 column (e.g. YMC Triart C18 ExRS)
Detection wavelength: 246 nm

[4] = rat, at equivalent antithrombotic efficacy, versus ticagrelor; cited from earlier work
[5] = tested on: platelet aggregation; conditions: 15 minutes after subcutaneous administration, doses of 8 mg, 16 mg and 32 mg; cited from earlier work
[6] = tested on: platelet; conditions: patients with AMI, cited from earlier work
[7] = Stability of COMPOUND in aqueous solution at different pH values in the absence of a buffer (HPLC); format: physicochemical
Procedure: For instance, a solution of COMPOUND (32 mg/mL) in water at pH 7 (adjusted with aqueous NaOH solution) contained only 33.5% COMPOUND, but 65.2% (R)-2-(6-((S)-3-methoxypyrrolidin-1-yl)-2-phenylpyrimidine-4-carboxamido)-3-phosphonopropanoic acid (hereinafter DEGRADATION COMPOUND) if stored at 60° C. for 1 week (98.6% COMPOUND at t=0, i.e. immediately after preparation of the solution). The amount of DEGRADATION COMPOUND dropped to 24.4% and 10.0% for corresponding aqueous solutions stored under the same conditions but adjusted to pH 8.0 and 9.0, respectively.
as §1
Aqueous formulations containing 32 mg/mL (52 mM) COMPOUND were titrated to pH 7.0, 8.0, and 9.0 using aqueous 1N NaOH solution.
The different formulations were filled into 1 mL sterile, pre-fillable glass syringes after sterile filtration. Samples were analyzed at t=0 and after 1-week storage at 60° C.

pH value after storage [1]: 8.5 | Content of COMPOUND ([2]; 0 mM B(OH)3, pH 9.0, 75° C., 0 h): 100.00 Area % | Content of COMPOUND ([2]; 0 mM B(OH)3, pH 9.0, 75° C., 24 h): 96.16 Area % | Content of COMPOUND ([2]; 0 mM B(OH)3, pH 9.0, 75° C., 48 h): 89.46 Area % | Content of COMPOUND ([2]; 0 mM B(OH)3, pH 9.0, 75° C., 120 h): 64.89 Area % | Content of COMPOUND ([2]; 0 mM B(OH)3, pH 9.0, 75° C., 168 h): 49.45 Area % | Content of COMPOUND ([2]; 20 mM B(OH)3, pH 9.0, 75° C., 0 h): 100.00 Area % | Content of COMPOUND ([2]; 20 mM B(OH)3, pH 9.0, 75° C., 24 h): 94.61 Area % | Content of COMPOUND ([2]; 20 mM B(OH)3, pH 9.0, 75° C., 48 h): 90.72 Area % | Content of COMPOUND ([2]; 20 mM B(OH)3, pH 9.0, 75° C., 120 h): 74.84 Area % | Content of COMPOUND ([2]; 20 mM B(OH)3, pH 9.0, 75° C., 168 h): 62.18 Area % | Content of COMPOUND ([2]; 60 mM B(OH)3, pH 9.0, 75° C., 0 h): 100.00 Area % | Content of COMPOUND ([2]; 60 mM B(OH)3, pH 9.0, 75° C., 24 h): 96.60 Area % | Content of COMPOUND ([2]; 60 mM B(OH)3, pH 9.0, 75° C., 48 h): 90.21 Area % | Content of COMPOUND ([2]; 60 mM B(OH)3, pH 9.0, 75° C., 120 h): 78.47 Area % | Content of COMPOUND ([2]; 60 mM B(OH)3, pH 9.0, 75° C., 168 h): 68.96 Area % | Content of COMPOUND ([2]; 100 mM B(OH)3, pH 9.0, 75° C., 0 h): 100.00 Area % | Content of COMPOUND ([2]; 100 mM B(OH)3, pH 9.0, 75° C., 24 h): 97.89 Area % | Content of COMPOUND ([2]; 100 mM B(OH)3, pH 9.0, 75° C., 48 h): 93.78 Area % | Content of COMPOUND ([2]; 100 mM B(OH)3, pH 9.0, 75° C., 120 h): 77.85 Area % | Content of COMPOUND ([2]; 100 mM B(OH)3, pH 9.0, 75° C., 168 h): 71.33 Area % | Amount of COMPOUND in the test samples ([3]; 5° C., 1 month): 16.9 mg | Amount of COMPOUND in the test samples ([3]; 5° C., 3 months): 16.8 mg | Amount of COMPOUND in the test samples ([3]; 5° C., 6 months): 16.6 mg | Amount of COMPOUND in the test samples ([3]; 5° C., initial): 16.9 mg | Amount of COMPOUND in the test samples ([3]; 25° C./60% RH, 1 month): 16.8 mg | Amount of COMPOUND in the test samples ([3]; 25° C./60% RH, 3 months): 16.4 mg | Amount of COMPOUND in the test samples ([3]; 25° C./60% RH, 6 months): 16.2 mg | Amount of COMPOUND in the test samples ([3]; 25° C./60% RH, 12 months): 15.9 mg | Amount of COMPOUND in the test samples ([3]; 25° C./60% RH, initial): 16.9 mg | Amount of COMPOUND in the test samples ([3]; 30° C./75% RH, 1 month): 16.7 mg | Amount of COMPOUND in the test samples ([3]; 30° C./75% RH, 3 months): 16.2 mg | Amount of COMPOUND in the test samples ([3]; 30° C./75% RH, 6 months): 15.9 mg | Amount of COMPOUND in the test samples ([3]; 30° C./75% RH, 12 months): 15.2 mg | Amount of COMPOUND in the test samples ([3]; 30° C./75% RH, initial): 16.9 mg | Amount of COMPOUND in the test samples ([3]; 40° C./75% RH, 1 month): 16.2 mg | Amount of COMPOUND in the test samples ([3]; 40° C./75% RH, 3 months): 15.1 mg | Amount of COMPOUND in the test samples ([3]; 40° C./75% RH, 6 months): 13.3 mg | Amount of COMPOUND in the test samples ([3]; 40° C./75% RH, initial): 16.9 mg | Content of COMPOUND ([7]; 32 mg/mL in water, pH 7 (NaOH), 60° C. for 1 week): 33.5% | Content of COMPOUND ([7]; 32 mg/mL in water, pH 7 (NaOH), t=0): 98.6% | Content of COMPOUND ([7]; no buffer, pH 7.0, t = 0): 98.55 Area % | Content of COMPOUND ([7]; no buffer, pH 7.0, t = 1 week at 60° C.): 33.5 Area % | Content of COMPOUND ([7]; no buffer, pH 8.0, t = 0): 98.65 Area % | Content of COMPOUND ([7]; no buffer, pH 8.0, t = 1 week at 60° C.): 74.7 Area % | Content of COMPOUND ([7]; no buffer, pH 9.0, t = 0): 98.60 Area % | Content of COMPOUND ([7]; no buffer, pH 9.0, t = 1 week at 60° C.): 88.7 Area %
SMILES: CCCCOC(=O)N1CCN(C(=O)[C@H](CP(=O)(O)O)NC(=O)c2cc(N3CC[C@H](OC)C3)nc(-c3ccccc3)n2)CC1 [COMPOUND, 4-((R)-2-{[6-((S)-3-methoxy-pyrrolidin-1-yl)-2-phenyl-pyrimidine-4-carbonyl]-amino}-3-phosphono-propionyl)-piperazine-1-carboxylic acid butyl ester]
blood loss [4]: significantly less blood loss than ticagrelor | inhibition of platelet aggregation [5]: more than 85% | antiplatelet response ([6]; single-dose subcutaneous): profound, rapid, and dose-related antiplatelet response | safety of single-dose subcutaneous administration [6]: safe
